Experiment: Solubility of the tested additives into diesel fuel

- Maximum evaluated concentration of marker soluble into diesel fuel (Table 1): <100 ppm
- Maximum evaluated concentration of marker soluble into diesel fuel (Table 2): <100 ppm
SMILES: CCCCN(CCO)CCO [N-butyldiethanolamine]

— patent publication US10175221B2, “Detection device to identify markers dissolved in a liquid by means of a measurement of resistivity variation, detection method and use of marker and detection device” (SICPA HOLDING SA, priority 2014, dated 2019)
